Assay results reported in ChEMBL document CHEMBL1128542, “Synthesis and antiviral activity of benzyl-substituted imidazo [1,5-a]-1,3,5-triazine (5,8-diaza-7,9-dideazapurine) derivatives” (J Med Chem, 1995).
pIC50: −log10 of the molar value.

Experiments:
[1] = Minimum toxic concentration required to cause a microscopically detectable alteration of normal vero cell morphology; assay type: toxicity, cell-based; conditions: chlorocebus sabaeus, Vero cells; read-out: MTC
[2] = system: HeLa; assay: Inhibitory concentration against respiratory syncytial virus in HeLa cells; assay type: functional, cell-based; conditions: Homo sapiens
[3] = system: MDCK; assay: Inhibitory concentration against influenza virus B in MDCK cells; assay type: functional, cell-based; conditions: Canis lupus familiaris
[4] = Minimum toxic concentration required to cause a microscopically detectable alteration of normal HeLa cell morphology; assay type: toxicity, cell-based; conditions: human, HeLa cells; read-out: MTC
[5] = system: CCRF-CEM; assay: Cytotoxic concentration required to inhibit CEM cell proliferation by 50%.; assay type: functional; conditions: Homo sapiens
[6] = system: MDCK; assay: Inhibitory concentration against influenza virus A in MDCK cells; assay type: functional, cell-based; conditions: Canis lupus familiaris
[7] = system: Vero; assay: Inhibitory concentration against parainfluenza-3 virus in vero cells; assay type: functional, cell-based; conditions: Chlorocebus sabaeus
[8] = Minimum toxic concentration required to cause a microscopically detectable alteration of normal MDCK cell morphology; assay type: toxicity, cell-based, Canis lupus familiaris; conditions: dog, MDCK cells; read-out: MTC
[9] = system: Human immunodeficiency virus 1; assay: Inhibitory concentration against HIV-1 replication; assay type: functional, organism-based
[10] = system: Human immunodeficiency virus 2; assay: Inhibitory concentration against HIV-2 replication; assay type: functional, organism-based

Compound | MCC [1] [µM] | pIC50 [2] | pIC50 [3] | MCC [4] [µM] | CC50 [5] [µM] | pIC50 [6] | pIC50 [7] | MCC [8] [µM] | pIC50 [9] | pIC50 [10]
CSc1ncnc2c(Cc3ccc(C)cc3)ncn12 | > 370 | 4.65 | 4.13 | 74 | 389 | 4.83 | < 3.83 | 74 |  | 
Cc1ccc(Cc2ncn3c(O)ncnc23)cc1 | 625 | < 3.08 | < 3.08 | > 833 | > 833 | < 3.08 | < 3.08 | > 833 |  | 
NC12CC3CC(CC(C3)C1)C2 [AMANTADINE] |  | < 3.18 | < 2.88 | 661 |  | 3.18 |  | > 661 |  | 
Cc1nc(C)n2c1NC=NC2N (centres undefined) | > 1100 | < 2.96 | < 2.96 | > 1100 | 115 | < 2.96 | < 2.96 | > 1100 |  | 
O=c1[nH]c(=S)[nH]c2c(Cc3ccccc3)ncn12 | 581 | < 3.11 | < 3.24 | > 775 | 430 | 4.27 | < 3.11 | > 775 |  | 
Cc1nc(Cc2ccccc2)c2ncnc(O)n12 | 417 | < 3.38 | < 3.08 | 417 | 262 | 3.20 | < 3.38 | > 833 |  | 
Oc1ncnc2c(Cc3ccccc3)ncn12 | > 885 | 3.18 | < 3.05 | > 885 | 633 | < 3.05 | < 3.05 | > 885 |  | 
Sc1ncnc2c(Cc3ccccc3)ncn12 | 24.7 | 5.48 | 5.48 | 16.5 | 35.1 | 5.31 | 4.48 | 16.5 | 4.69 | 4.75
Cc1ccc(CSC2NC(=O)n3cnc(CCCCCOCc4ccccc4)c3N2)cc1 (centres undefined) | > 89.2 | 5.59 | 3.65 | 44.6 | 343 | 5.28 | < 4.65 | 223 |  | 
Cc1ccc(Cc2ncn3c(N(C)C)ncnc23)cc1 | 374 | < 3.13 | < 3.13 | > 749 | 412 | < 3.13 | < 3.43 | > 749 |  | 
CSC1N=CNc2c(C)nc(C)n21 (centres undefined) | 515 | < 3.29 | 3.99 | 515 | 440 | 3.99 | < 3.29 | 515 |  | 
Cc1ccc(CSc2ncnc3c(Cc4ccc(C)cc4)ncn23)cc1 | 278 | < 3.56 | < 3.56 | 278 | > 111 | < 3.56 | < 3.56 | 278 |  | 
Cc1nc(C)n2c1NC(SCc1ccccc1)NC2=O (centres undefined) | > 350 | 4.68 | 3.16 | > 524 | 266 | 4.16 | < 3.85 | > 699 |  | 
Cc1ccc(CSC2NC(=O)n3c(C)nc(C)c3N2)cc1 (centres undefined) | 328 | 4.80 | < 3.48 | 328 | 88.8 | 4.18 | < 3.88 | 328 |  | 
Cc1ncn2c(=O)[nH]c(=S)[nH]c12 | 1100 | < 3.26 | < 2.96 | 549 | 786 | < 2.96 | < 2.96 | > 1100 |  | 
Cc1nc(C)n2c(S)ncnc12 | 556 | < 3.26 | 3.08 | 556 | > 694 | 3.65 | < 3.26 | > 1110 |  | 
Cc1ncn2c1NC=NC2N (centres undefined) | 671 | < 2.87 | < 2.87 | > 1340 | 746 | < 2.87 | < 3.17 | > 1340 |  | 
CSC1N=CNc2c(C)ncn21 (centres undefined) | 111 | 3.95 | 4.65 | 556 | 176 | 4.65 | < 3.65 | 111 |  | 
Cc1nc(C)n2c(=O)[nH]c(=S)[nH]c12 | 1020 | < 3.29 | < 2.99 | 510 | 526 | 3.29 | < 2.99 | > 1020 |  | 
Cc1ccc(CSC2NC(=O)n3cnc(Cc4ccc(C)cc4)c3N2)cc1 (centres undefined) | > 260 | 5.85 | 4.28 | 10.3 | 44.6 | 5.39 | < 3.98 | 260 |  | 
O=c1[nH]c(=S)[nH]c2c(CCCCCOCc3ccccc3)ncn12 |  | 4.63 | < 3.54 | 87.2 | 259 | 3.76 |  | 291 |  | 
CSC1NC(=O)n2cnc(CCCCCOCc3ccccc3)c2N1 (centres undefined) | > 112 | 5.66 | 4.25 | 11.1 | > 120 | 4.95 | < 4.55 | 55.8 |  | 
Cc1ncn2c(S)ncnc12 | 602 | < 3.22 | 3.62 | 602 | 789 | 3.74 | < 3.22 | 602 |  | 
CSC1NC(=O)n2cnc(Cc3ccc(C)cc3)c2N1 (centres undefined) | > 339 | 5.40 | 4.17 | 20.3 | 75.3 | 4.57 | 3.87 | 67.7 |  | 
Cc1ccc(Cc2ncn3c(=O)[nH]c(=S)[nH]c23)cc1 | > 735 | 3.59 | < 3.26 | > 735 | > 735 | 4.26 | < 3.13 | > 735 |  | 
NC(=O)c1ncn([C@@H]2O[C@H](CO)[C@@H](O)[C@H]2O)n1 [RIBAVIRIN] | > 1640 | 4.94 |  | > 820 |  | 5.31 | 3.54 | > 820 |  | 
CN(C)c1ncnc2c(Cc3ccccc3)ncn12 | > 790 | 3.40 | < 3.10 | > 790 | > 790 | < 3.10 | < 3.10 | > 790 |  | 
Cc1ccc(Cc2ncn3c(S)ncnc23)cc1 | 4.6 | 6.22 | 6.22 | 6.2 | 32.8 | 5.57 | 5.21 | 3.1 |  | 
